Experimental data as given in PubChem BioAssay (NCI).
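Compound exposure: 48 hours, 5 concentrations, 96-well plates. GI50: concentration for 50% inhibition of growth. The concentration for full growth arrest is given as TGI.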

How the values were obtained:
Assay in all cases: growth of human tumour cells (NCI), 48 h
[1] = system: 786-0 renal
[2] = system: A498 renal
[3] = system: A549 NSCLC
[4] = system: ACHN renal
[5] = system: BT-549 breast
[6] = system: CAKI-1 renal
[7] = system: CCRF-CEM leukemia
[8] = system: COLO 205 colon
[9] = system: DU-145 prostate
[10] = system: EKVX NSCLC
[11] = system: HCC-2998 colon
[12] = system: HCT-116 colon
[13] = system: HCT-15 colon
[14] = system: HL-60(TB) leukemia
[15] = system: HOP-62 NSCLC
[16] = system: HOP-92 NSCLC
[17] = system: HS 578T breast
[18] = system: HT29 colon
[19] = system: IGROV1 ovarian
[20] = system: K-562 leukemia
[21] = system: KM12 colon
[22] = system: LOX IMVI melanoma
[23] = system: M14 melanoma
[24] = system: MALME-3M melanoma
[25] = system: MCF7 breast
[26] = system: MDA-MB-231 breast
[27] = system: MDA-MB-435
[28] = system: MDA-MB-468 breast
[29] = system: MOLT-4 leukemia
[30] = system: NCI-H226 lung

Compound: O=C(CNc1nc(-c2ccccc2)cs1)Nc1cccc([N+](=O)[O-])c1
- GI50 [1]: 253 nM
- TGI [1]: 663 nM
- GI50 [2]: 223 nM
- TGI [2]: 555 nM
- GI50 [3]: 323 nM
- TGI [3]: 1390 nM
- GI50 [4]: 200 nM
- TGI [4]: 436 nM
- GI50 [5]: 167 nM
- TGI [5]: 347 nM
- GI50 [6]: 182 nM
- TGI [6]: 558 nM
- GI50 [7]: 58.7 nM
- TGI [7]: 4520 nM
- GI50 [8]: 193 nM
- TGI [8]: 367 nM
- GI50 [9]: 264 nM
- TGI [9]: 730 nM
- GI50 [10]: 231 nM
- TGI [10]: 580 nM
- GI50 [11]: 175 nM
- TGI [11]: 321 nM
- GI50 [12]: 188 nM
- TGI [12]: 590 nM
- GI50 [13]: 93 nM
- TGI [13]: 413 nM
- GI50 [14]: 198 nM
- TGI [14]: 937 nM
- GI50 [15]: 216 nM
- TGI [15]: 469 nM
- GI50 [16]: 243 nM
- TGI [16]: 660 nM
- GI50 [17]: 230 nM
- TGI [17]: 739 nM
- GI50 [18]: 142 nM
- TGI [18]: 357 nM
- GI50 [19]: 108 nM
- TGI [19]: 459 nM
- GI50 [20]: 223 nM
- TGI [20]: 11200 nM
- GI50 [21]: 246 nM
- TGI [21]: 693 nM
- GI50 [22]: 106 nM
- TGI [22]: 238 nM
- GI50 [23]: 177 nM
- TGI [23]: 347 nM
- GI50 [24]: 172 nM
- TGI [24]: 314 nM
- GI50 [25]: 166 nM
- TGI [25]: 551 nM
- GI50 [26]: 196 nM
- TGI [26]: 375 nM
- GI50 [27]: 170 nM
- TGI [27]: 319 nM
- GI50 [28]: 185 nM
- TGI [28]: 358 nM
- GI50 [29]: 117 nM
- TGI [29]: 2530 nM
- GI50 [30]: 188 nM
